The target of one series is T1, hURAT1 (Homo sapiens, UniProt Q96S37).
T1 sequence (Q96S37 1-553): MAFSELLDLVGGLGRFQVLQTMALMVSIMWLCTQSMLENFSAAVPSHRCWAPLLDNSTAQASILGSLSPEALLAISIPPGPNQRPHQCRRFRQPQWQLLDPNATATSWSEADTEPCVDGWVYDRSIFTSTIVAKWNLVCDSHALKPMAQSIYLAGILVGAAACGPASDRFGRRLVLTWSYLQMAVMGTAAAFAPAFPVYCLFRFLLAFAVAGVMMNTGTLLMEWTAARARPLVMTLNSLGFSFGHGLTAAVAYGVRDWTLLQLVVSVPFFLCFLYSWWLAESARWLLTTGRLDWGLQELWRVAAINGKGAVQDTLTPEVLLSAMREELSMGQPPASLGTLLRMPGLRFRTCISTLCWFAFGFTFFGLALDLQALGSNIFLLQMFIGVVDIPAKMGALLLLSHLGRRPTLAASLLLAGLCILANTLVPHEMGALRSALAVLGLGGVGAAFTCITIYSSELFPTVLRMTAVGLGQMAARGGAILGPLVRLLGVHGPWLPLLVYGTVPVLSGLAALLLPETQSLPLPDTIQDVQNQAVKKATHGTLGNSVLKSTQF
Briefly: Inhibition assay of uric acid transport in HEK293-hURAT1 transfection cell line. It is filed as cell-based. The settings on record: for inhibition at 0.5 µM: read-out: Inhibitory rates of uric acid transport, ±SD (%). The protocol: 2.1 Construction of a HEK293 stable cell line with high expression of hURAT1: The plasmid pCMV6-hURAT1 was transfected into HEK293 cells, then the stable strain was obtained by the G418 (final concentration 500 μg/mL) resistance screening, which is the high expression of hURAT1 transporter membrane protein.
2.2 To a coated 24-well plate was added 200 μL of 0.1 mg/mL poly-lysine per well and the plate was left overnight. Poly-lysine was removed from wells. The wells were cleaned thoroughly with aseptic water and dried for use.
2.3 To the above coated 24 well plate was added HEK293-hURAT1 stable cells (2×10^5 cells per well). The cells was cultured at 37° C. under 5% CO2 for 3 days.
The solution was fully mixed to give HBSS buffer (pH value: 7.4). The buffer was stored at −20° C.
2.5 The HBSS buffer was warmed to 37° C. in a water bath. Washed cells with HBSS twice, added 160 μL of HBSS and 20 μL test compound per well. The final concentration of tested compound per well is 500 nM. The blank control well contains only 180 μL of HBSS without tested compound. The plate was placed at room temperature for 30 min.
2.6 To each well was added 20 μL of 50 μM ^14C-Uric acid. The plate was placed at room temperature for 20 min.
2.7 The solution in each well was removed and the cells in each well were washed with pre-cooled HBSS buffer. To each well was added 0.2 M NaOH to dissolve the cells. The solution containing cell fragments was collected and the right amount of scintillation liquid was added.
The formula for calculating the inhibitory rate of uric acid transport for compounds was shown as below: […]

Series [1] deals with human normal liver cell line L-02. The series can be described thus: Cytotoxicity test on human normal liver cell line L-02 (Alamar Blue). The format is cell-based. Particulars: L02, L-02 cells, 120 h incubation, cell viability, read-out: half inhibitory concentration (IC50) against L-02. The protocol:
(§1) 2.1 The normal liver cell lines L-02 and WRL-68 were cultured with DMEM culture medium (containing 10% of fetal bovine serum, 100 U/mL of penicillin and 0.1 mg/mL of streptomycin) in an incubator under 5% CO2 at 37° C. until the cell density was about 90%, respectively.
(§2) 2.3 Tested compounds and benzbromarone at different concentration gradients were prepared by using the DMEM culture medium and added into wells at 100 μL/well as compounds wells. The DMEM culture medium was added into wells at 100 μL/well without tested compound as negative control wells.
(§3) This 10× Alamar Blue solution was diluted into 1× Alamar Blue solution with phenol red free DMEM culture medium before use.
(§4) 2.5 The cells were washed with PBS (0.1 M, pH=7.4) twice. The Alamar Blue solution was added into wells at 100 μL/well. 100 μL of Alamar Blue solution was added into wells without cells to serve as blank control wells. The 96-well plate was placed in an incubator under 5% CO2 at 37° C. for 3 h. Each concentration of compound was repeated three times during the test.
(§5) The fluorescence value of the cells containing compound is the F(test compound); the fluorescence value of the cells without compound as blank control is the F(blank control); the fluorescent value of the cells from negative control group is F(negative control). The average value and standard deviation of cell viability of three repeated concentrations was calculated by the following formula: […]
(§6) 2.7 The half inhibitory concentration (IC50) of the compound for the cells L-02 and WRL-68 was obtained from the cell viability by Prism Graph software.
On the technique in general: Resazurin is reduced to fluorescent resorufin, in cell work by metabolically active cells.

Series [2] relates to human normal liver cell line WRL-68. The series can be described thus: Cytotoxicity test on human normal liver cell line WRL-68 (Alamar Blue). The format is cell-based. Particulars: WRL68, WRL-68 cells, 120 h incubation, cell viability, read-out: half inhibitory concentration (IC50) against WRL-68. The protocol: as §1, §2, §3, §4, §5, §6
Another series deals with hyperuricemia mice. The series can be described thus: Uric acid excretion test in hyperuricemia mice. The format is in vivo, Kunming mice. The settings on record: 15 mg/kg oral. The protocol:
Species: Kingming mice (Clean Level); body weights: 25 to 30 g; ages: 4 to 5 weeks; sex: male. These mice were purchased from Shanghai SLAC Laboratory Animal Co., Ltd. Certificate No.: SCXK (HU) 2012-2002. Animal quality certificate number: 2015000522173.
A certain amount of adenine and yeast extract powder was weighted and a certain amount of double distilled water was added. The mixture was stirred at about 60° C. for 40 min to give a suspension, which the concentration of yeast extract is 0.6 g/mL and the concentration of adenine is 12 mg/mL.
A suspension of 20 mg/mL potassium oxonate was prepared by mixing a certain amount of potassium oxonate with 0.5% CMC-Na solution before use.
Male Kunming mice were randomly divided into four groups: blank control group, model group, compound 74 group, and benzbromarone group. Each group has six mice. All mice fasted 2 to 3 h before use. The model group, benzbromarone group, and compound 74 group were orally given a suspension of yeast extract and adenine prepared above to reach the final dosage of 10 g/kg (body weight) of yeast extract and 200 mg/kg (body weight) of adenine, respectively. The blank control group was only given same volume of normal saline orally. After 2.5 h, all mice in compound 74 group and benzbromarone group were given 10 mL/kg of suspension of compound 74 (1.5 mg/mL) and 10 mL/kg of suspension of benzbromarone (1.5 mg/mL), respectively. The blank control group and model group were orally given same volume of 0.5% CMC-Na solution. All animals were treated in the same way for seven days by using administration methods described above. On the last day, after administration of a suspension of yeast extract and adenine for the model group, compound 74 group, and benzbromarone group, all mice in these three groups were given 12.5 mL/kg of potassium oxonate (20 mg/mL) by i.p. The blank control was only given same volume of 0.5% CMC-Na solution by i.p. After 30 min, compound 74 and benzbromarone were administrated orally to the mice at same dosages as above in compound 74 group and benzbromarone group, respectively. The blank control group and model group were orally given same volume of 0.5% CMC-Na solution.
Collection of urine samples: All mice were placed in metabolic cages with normal diet individually after giving test compounds on the last day. 24 h urine was collected and the urine volume was measured. The urine was centrifugated at 3000 rpm for 20 min and the supernatant was collected.
Detection of the concentration of uric acid of mice urine samples: uric acid concentration in samples was detected by using uric acid assay kit (phosphotungstic acid method) followed the procedures described in the instruction.

The next series in a line: in vivo. Particulars: both, SD, rat, po.
A short description of series [3]: Acute toxicity of single oral dose in SD rats.
From the text: (§7) Rats were randomly divided into group A1, group B1 and blank control group. Each group has 10 of rats with half male and half female.
[4] abbreviates: 500 nM, HEK293-hURAT1 transfection cell line, 14C-uric acid, average of three tests.

Read-outs that look alike come from different tables or passages of the source.

From the text for in vivo: as §7

Consider `CCc1oc2ccccc2c1C(=O)c1cc(Br)c(O)c(Br)c1` [BBR, (3,5-dibromo-4-hydroxyphenyl)(2-ethyl-benzofuran-3-yl)methanone, reference compound], for which, on hURAT1, the inhibition at 0.5 µM stood at 55.6 ± 1.42%. Moreover, the IC50 was 40.2 µM in series [1] and 45.5 µM in series [2]. Besides, in the series on hyperuricemia mice (increase over model group), the “uric acid excretion increased compared with the model group” value is on record as “about 25.35%”. In the series with hyperuricemia mice (model group set to 100%), the “Changes of uric acid excretion (compared with model group, %)” value came to 125.35%. Besides, in the series on hyperuricemia mice (seven days, 6 mice), the “Uric acid in urine for 24 h, ±SD” value was 13.40 ± 1.59 mmol. Besides, in “in vivo”, the MTD at 14 days came to 140 mg/kg. For the same molecule, the Death rate in series [3] (SD rats, single oral dose, 74 at 5.0 g/kg, BBR at 0.14 g/kg, 10 rats per group, 14 days observation) is reported as 0/10. In series [3] (pre-experiment, compound 74 at 5 g/kg (highest dose), benzbromarone at 0.14 g/kg), the “death of rats in pre-experiment of acute toxicity” value was “no death of rats was found”.
In the case of `CCc1nc2ccccn2c1C(=O)c1cc(Cl)c(O)c(Br)c1` [Compound 45, (3-bromo-5-chloro-4-hydroxyphenyl)(2-ethylimidazo[1,2-a]-pyridin-3-yl)methanone], on hURAT1 (setting [4]), the inhibition at 0.5 µM turned out to be 62.9 ± 3.34%. The IC50 in series [1] and in series [2] was more than 100 µM each time.
`CCc1nc2ccc(F)cn2c1C(=O)c1cc(F)c(O)c(I)c1` [Compound 51, (2-ethyl-6-fluoroimidazo[1,2-a]pyridin-3-yl)(3-fluoro-4-hydroxy-5-iodophenyl)methanone]: at hURAT1 (setting [4]), the inhibition at 0.5 µM was determined as 61.3 ± 1.1%. In addition, the IC50 in series [1] and in series [2] was more than 100 µM each time.
Take `CCc1nc2ccc(O)cn2c1C(=O)c1cc(Br)c(O)c(Br)c1` [Compound 52, (3,5-dibromo-4-hydroxyphenyl)(2-ethyl-6-hydroxyimidazo-[1,2-a]pyridin-3-yl)methanone]: the inhibition at 0.5 µM at hURAT1 (setting [4]) came to 57.5 ± 3.61%. Further, the IC50 in series [1] and in series [2] was more than 100 µM each time.
`CCc1nc2cc(C)c(Br)cn2c1C(=O)c1cc(Br)c(O)c(Br)c1` [Compound 56, (6-bromo-2-ethyl-7-methylimidazo[1,2-a]pyridin-3-yl)-(3,5-dibromo-4-hydroxyphenyl)methanone]: the inhibition at 0.5 µM at hURAT1 (setting [4]) was found to be 62.8 ± 9.34%. The IC50 in series [1] and in series [2] was more than 100 µM throughout.
Regarding `CCc1nc2ccccn2c1C(=O)c1cc(I)c(O)c(C#N)c1` [Compound 75, 5-(2-ethylimidazo[1,2-a]pyridine-3-carbonyl)-2-hydroxy-3-iodobenzonitrile hydrogen chloride], the “Inhibitory rates of uric acid transport, ±SD (%)” value at hURAT1 (500 nM, HEK293-hURAT1 transfection cell line, 14C-uric acid, average of three tests, 0.5 µM) stood at 62.58 ± 0.84%. In addition, the IC50 in series [1] and in series [2] was more than 100 µM each time.

For the origin of these results see patent publication US10399971B2, “Compound for treating or preventing hyperuricemia or gout” (JIANGSU ATOM BIOSCIENCE AND PHARMACEUTICAL CO., LTD., priority 2015, dated 2019).
